Results on four substances are retold here after patent US20090136616A1, “METHODS OF FEEDING RUMINANTS ON WINTER FORAGE SUPPLEMENTING WITH ZEOLITE” (priority 2007, published 2009).

For series [1], the system named is Angus cross steer and heifer calves. The conditions noted are these: bovine, in vivo. As to the method:
The experimental animals were Angus cross steer and heifer calves from Manitoba, Canada. They were trucked to the experimental feedlot located near Kitchener, Ontario, Canada. On arrival of the animal received IBR, PIP and BVD vaccine plus Covexina. They were also treated for internal and external parasites with Ivomec pour on. Prior to the beginning of this trial the calves were preconditioned for approximately 45 days and adapted to a high concentrate diet.
Following the preconditioning period, unhealthy calves were removed and the remaining calves were divided into steer and heifer groups. These groups were then divided at random into 20 pens of steers and 20 pens of heifers. Each of the pens contained 8 head of calves. Five pens of steers and 5 pens of heifers were then allotted to each of 4 experimental treatments.
Initial, 28 day interim weights and final weights were based on gross weights less a 4% pencil shrink. Experimental data collected included average daily gain, feed consumption and feed conversions. In addition, death loss and bloat problems were observed. At the termination of the trial, Rumen pH was measured on 4 animals from each treatment using a Geishauser Probe. The pH measurements were taken at 2, 4 and 6 hours after feeding.
A calcium clinoptilolite zeolite (Biolite®) was added in place of an equivalent amount of corn. […]

The next series deals with feedlot cattle. Description: Summary of seven feedlot experiments with Biolite in med and n-med finishing diets (rumen pH, liver abscesses, performance). Type of series: in vivo. The conditions noted are these: sample collected by Geishauser Probe prior to the morning feeding; B at 1.2% DMB.
Series [2] concerns Char-Hereford cross heifer calves. The format is in vivo. As to the method: The experimental animals were Char-Hereford cross unweaned heifer calves originating from Western Ontario and Eastern Manitoba Canada. On arrival they were vaccinated for IBR, PI3 and BVD. They were treated for internal and external parasites with Ivomec. They were implanted with Synovex C.
Approximately 350 head of calves were purchased weighing approximately 500 lbs. From this group 160 head and were selected for the experiment and randomly allotted into four experimental groups. Each treatment contains 5 reps of 8 head each. They were grown on a medium energy level diet limit fed calculated to obtain a daily gain of approximately 2.6 lbs. Length of feeding period will be approximately 100 days. After arrival and prior to the trial allotment they were each-backgrounded for approximately 3-4 weeks. They averaged approximately 550 lbs at the beginning of the trial.
Data collected included: • 1. Gain, consumption and conversions at 28 day intervals and overall. • 2. Observations on bloat and metabolic problems. • 3. Cost of gain by treatment including feed and feed additive cost, with no yardage or “mark up”.
Originally the trial was scheduled for 100 days, but because of unusually good performance, it was decided to terminate at 91 days.

Setting [3] is: summarized: NC vs RT and BL vs no BL treatments pooled.

Like-named read-outs stand apart in the source and are kept apart here.

Excerpt for feedlot cattle: These diets have been composed of corn silage for roughage, flaked corn, and a substantial amount of wet corn milling byproducts.
The feed additives used included Monensin sodium (R) and Tylosin phosphate (T).
Data collected included daily gain, consumption, feed efficiency, rumen pH and observations on bloat and metabolic problems. Carcass data including liver abscess occurrence were collected.
Rumen samples were collected from cattle prior to the morning feeding using a Geishauser Probe.

Take “calcium clinoptilolite zeolite [Biolite ®]”: in series [1], the “Metabolics Treated” value is reported as 4.
Regarding Monensin sodium [R], the “rumen pH” value in the series with feedlot cattle is on record as “R 6.43b means with different super script letter differ, P < .OS O 6.46b”.
Regarding Nova-Cell + Biolite [NC + BL], the “Bloat Treated” value in series [2] (bovine, in vivo) is recorded as 0.
For Nova-Cell [NC], in series [2] (91 days), the “Bloat Died” value is 0, the “Bloat Treated” value is on record as 0, the Consumption is listed as 17.0αb and the Conversions is given as 5.97b. In addition, in series [2] (91 days, limit fed grow ration, BL at 1.2% DMB), the ADG stood at 2.85b. In addition, in series [2] (setting [3]), the ADG is given as 3.03α, the Consumption is 17.11α and the Conversions was 5.70.
